Laboratory results reported in article PMC5054364, “Neuroprotective pentapeptide CN-105 improves functional and histological outcomes in a murine model of intracerebral hemorrhage” (Scientific Reports, 2016).

Assays:
[1] = test system: murine model of collagenase-induced ICH; test: Morris water maze testing after ICH; type: in vivo, C57BL/6J mice; conditions: Days 29–32 after ICH, 0.05 mg/kg i.v. at 4, 8 and 24 hours post ICH, n = 14/group
Protocol: (§1) Experiment 4. Neurobehavioral assessment. Animals were randomized to vehicle (n = 14) or CN-105 (n = 14) groups, and evaluated for neurobehavioral function (neuroscore), vestibulomotor function (rotarod), and spatial learning (MWM). Mice received tail vein injections of vehicle or CN105 at 4, 8, and 24 hours post ICH.
(§2) Intrastriatal collagenase injection was used to induce ICH in mice, as previously described. Briefly, the trachea was intubated after anesthesia induction with 4.6% isoflurane, and the lungs were mechanically ventilated with 1.5% isoflurane in a mixture of 30%/70% O2/N2. Rectal temperature was maintained at 37 °C ± 0.2 °C by circulating warm water in an underbody waterbed. The animal’s head was secured in a stereotactic frame, and a midline scalp incision was made. After exposing the skull, a burr hole was created 2.2 mm left lateral to bregma, and a 0.5 μL syringe needle (Hamilton, Reno, NV, USA) was advanced to a depth of 3 mm from cortex. Type IV-S Clostridial collagenase (Sigma, St. Louis, MO, USA) was injected over 2 minutes (0.075 U in 0.4 μL normal saline). […]
The MWM[20] was used to assess the effects of therapeutic intervention on spatial learning and memory. […] Latency to find the platform was recorded by a computerized video tracking system (KeilSoft LLC, Chapel Hill, NC).

[2] = test system: murine model of collagenase-induced ICH; test: NeuN neuronal survival, stereology after ICH; type: in vivo, C57BL/6J mice; conditions: ipsilateral, 33 days post ICH, 0.05 mg/kg i.v. at 4, 8 and 24 hours, n = 7/group
Description: Experiment 6. Neuronal survival. The hippocampus has been associated with spatial learning and memory. To determine whether histological outcome correlates with functional outcomes, neuronal density was quantified in the hippocampus and striatum of the mice (n = 7/group) in experiment 4 by stereology at 33 days post-ICH following MWM testing.
(§3) Intrastriatal collagenase injection was used to induce ICH in mice, as previously described. Briefly, the trachea was intubated after anesthesia induction with 4.6% isoflurane, and the lungs were mechanically ventilated with 1.5% isoflurane in a mixture of 30%/70% O2/N2. Rectal temperature was maintained at 37 °C ± 0.2 °C by circulating warm water in an underbody waterbed. The animal’s head was secured in a stereotactic frame, and a midline scalp incision was made. After exposing the skull, a burr hole was created 2.2 mm left lateral to bregma, and a 0.5 μL syringe needle (Hamilton, Reno, NV, USA) was advanced to a depth of 3 mm from cortex. Type IV-S Clostridial collagenase (Sigma, St. Louis, MO, USA) was injected over 2 minutes (0.075 U in 0.4 μL normal saline). After closing the incision, animals were allowed to recover spontaneous ventilation, and were then extubated and given free access to food and water.
CN-105 (Ac-VSRRR-amide) was synthesized by Polypeptide Inc. (San Diego, CA) to a purity of >99%, and was dissolved in normal saline. Using a murine model of traumatic brain injury, 0.05 mg/kg CN-105 was previously found to be the lowest dose that improved functional performance after injury (data not shown). Here, therefore, 100 μL 0.05 mg/kg CN-105 in saline, or vehicle, was administered via intravenous tail vein injection 3 times at pre-specified timepoints after ICH. Animals were gently restrained by a rodent restrainer (Harvard Apparatus, Holliston, MA) during each administration.
(§4) After anesthetic induction, mice underwent transcardial perfusion with 30 mL normal saline. […] Cells were counted using a Nikon 218912 light microscope interfaced with the StereoInvestigator software package (MicroBrightField, Williston, VT, USA). […]

[3] = test system: murine model of collagenase-induced ICH; test: Neuroseverity score after ICH; type: in vivo, C57BL/6J mice; conditions: 0.05 mg/kg i.v. at 4, 8 and 24 hours post ICH; p = 0.12; n = 14/group
Protocol: as §1, §3
CN-105 (Ac-VSRRR-amide) was synthesized by Polypeptide Inc. (San Diego, CA) to a purity of >99%, and was dissolved in normal saline. […]

[4] = CN-105 pharmacokinetics in brain and plasma (LC/MS); type: in vivo; conditions: mice
Description: One rationale for creating the smaller apoE mimetic peptides was to enhance CNS penetration and possibility of noninvasive mechanisms of delivery (for example, intranasal). To define pharmacokinetic parameters, we performed initial non-GLP studies in mice using stable radioisotope labeled CN-105 peptide (MW of heavy CN-105 was 362.7 vs. 357.7). […] The total CNS exposure was 44%; of note, this is approximately 5 fold higher than prior apoE based mimetic peptides.
Experiment 1. CN-105 pharmacokinetics in Brain and Plasma. The concentration of CN-105 was determined at 1, 3, 10, 15, 30 and 60 minutes (n = 5/time point) post injection using LC/MS.
A protocol was developed in collaboration with the Duke University Core Proteomics and Metabolomics Shared Resource using LC/MS on a high-resolution accurate-mass instrument. […] After extraction, samples were dried down in Speed Vac and reconstituted in 25 uL of 1% ACN/0.1% TFA/0.02% HFBA and analyzed using a nanoAcquity LC (Waters) coupled to a Synapt G2 Q-ToF (Waters). Quantitative data was extracted as selected ion chromatograms for both the native ((M + 2H)^2+at m/z 357.7 and heavy-labeled form CN-105 at m/z 362.7). Quantitation was accomplished by using a ratio of the peak area of the analyte and internal standard which was fit to a 7-point calibration curve (plasma R^2 = 0.997 and brain R^2 = 0.999).

[5] = test system: murine model of collagenase-induced ICH; test: F4/80 microglial staining and stereology after ICH; type: in vivo, C57BL/6J mice; conditions: 5 days after ICH; 0.05 mg/kg i.v. at 4, 8 and 24 hours post ICH; vehicle 14593 ± 116, p = 0.003; mean ± standard error, n = 3–4
Protocol: Experiment 5. Microglial staining. A separate cohort of animals was randomized to vehicle (n = 4) or CN-105 (n = 4) groups and received tail vein injections at 4, 8, and 24 hours post ICH. Immunohistochemical microglial staining was performed and gliosis was quantified by stereology. One mice in vehicle group died within 1 day after injury and was excluded.
as §2, §4

[6] = test system: murine model of collagenase-induced ICH; test: Brain water content (cerebral edema) after ICH; type: in vivo, C57BL/6J mice; conditions: 24 hours after injury, 0.05 mg/kg i.v. at 2, 6 and 24 hours post ICH, mean ± standard error, n = 6–8/group
Protocol: Experiment 3. Brain water content. Brain water content was assessed at 24 hours post ICH in 8 saline- and 8 CN-105-treated animals. CN-105 or saline was given by tail vein injection at 2, 6, and 24 hours post ICH. Two animals randomized to CN-105 died at 4 and 6 hours post-ICH, and were excluded from further analyses.
as §2
Mice were anesthetized and euthanized at 24 hours after ICH to coincide with the point of maximum inflammatory changes. […] Cerebral edema was expressed as water content, calculated as a percentage of wet weight ([wet weight - dry weight]/[wet weight] x 100).

[7] = test system: murine model of collagenase-induced ICH; test: Histological hemorrhage volume (H&E staining) after ICH; type: in vivo, C57BL/6J mice; conditions: 0.05 mg/kg i.v. tail vein at 2, 6 and 24 hours post-ICH; saline 7.97 ± 0.97, p = 0.66; mean ± standard error, n = 3/group
Protocol: (§5) Experiment 2. Hematoma volume. Hemorrhage volume was assessed by magnetic resonance imaging (MRI) at 2 hours post ICH (before treatment) and 24 hours post ICH. 3 saline- and 3 CN-105-treated animals were perfused at 24 hours post ICH, and brain hematoxylin and eosin (H&E) staining was performed. CN-105 or saline was given by tail vein injection at 2, 6, and 24 hours post-ICH.
Intrastriatal collagenase injection was used to induce ICH in mice, as previously described. Briefly, the trachea was intubated after anesthesia induction with 4.6% isoflurane, and the lungs were mechanically ventilated with 1.5% isoflurane in a mixture of 30%/70% O2/N2. Rectal temperature was maintained at 37 °C ± 0.2 °C by circulating warm water in an underbody waterbed. The animal’s head was secured in a stereotactic frame, and a midline scalp incision was made. […]
Histological hematoma volume was measured at 24 hours after injury to coincide with maximum hematoma expansion. […] Lesion volume was measured by digitally sampling stained sections with an image analyzer (M2 Turnkey System, Imaging Research, Inc., St. Catharines, Ontario, Canada). Lesion volumes (mm^3) were computed as running sums of lesion area multiplied by the known interval between sections (400 μm) over the extent of the lesion, and expressed as an orthogonal projection.

[8] = test system: murine model of collagenase-induced ICH; test: Hemorrhage volume by SWI MRI after collagenase-induced ICH; type: in vivo, C57BL/6J mice; conditions: mean ± standard error, n = 3–4/group
Protocol: as §5
as §3, with “water. […]” for “water.”

[9] = test system: murine model of collagenase-induced ICH; test: Rotarod testing (vestibulomotor function) after ICH; type: in vivo, C57BL/6J mice; conditions: Days 1–5 after ICH; 0.05 mg/kg i.v. at 4, 8 and 24 hours post ICH; p = 0.0435; n = 14/group
Protocol: as §1, §2
An automated rotarod (Ugo Basile, Comerio, Italy) was used to assess the effects of therapeutic intervention on vestibulomotor function. […] The average time lapse to fall from the rotating cylinder in the second set of trials was recorded as baseline latency. […] Average latency to fall from the rod was recorded.

AUC0–60 in brain ([4]; brain homogenate (urea in buffer), 0-60 minutes post injection, n = 5/time point, LC/MS): 548 fmol·min/µL
total CNS exposure ([4]; brain versus plasma AUC0–60): 44%
AUC0–60 in plasma ([4]; plasma, 0-60 minutes post injection, n = 5/time point, LC/MS): 1253 fmol·min/µL
half-life ([4]; mouse, non-GLP study, stable isotope labeled CN-105, plasma sampled 1-60 minutes post injection, n = 5/time point, LC/MS, read-out: terminal plasma half-life): 27 min
Substance: Ac-VSRRR-NH2 [CN-105, Ac-VSRRR-amide]
Morris water maze escape latencies versus vehicle ([1]; Day x Group p = 0.02): significantly lower latencies
Morris water maze learning curves (learning slopes) versus vehicle ([1]; p = 0.01): significantly steeper learning curves
NeuN-positive cell numbers, striatum ([2]; vehicle 25142 ± 5777, p = 0.27): 21816 ± 5073 cells/mm^3
NeuN-positive cell numbers, dentate gyrus polymorphic region ([2]; vehicle 34919 ± 9378, p = 0.16): 42109 ± 8439 cells/mm^3
NeuN-positive cell numbers, CA3 region ([2]; vehicle 188719 ± 4780, p = 0.009): 225773 ± 10841 cells/mm^3
neuroseverity scores, Day 1 to Day 5 after ICH versus vehicle [3]: mild but not significant improvement
number of F4/80-positive cells in the ipsilateral hippocampi [5]: 9327 ± 838 cells/mm^3
brain water content, contralateral hemisphere ([6]; p = 0.64): 78.70 ± 0.41%
brain water content, injured hemisphere ([6]; vehicle 80.67 ± 0.26, p = 0.029): 79.57 ± 0.38%
hemorrhage volume by H&E staining at 24 hours after ICH [7]: 8.43 ± 0.15 mm^3
hemorrhage volume by SWI MRI at 24 hours post ICH ([8]; 0.05 mg/kg i.v. tail vein at 2, 6 and 24 hours post-ICH, saline 10.77 ± 1.70, p = 0.82): 10.14 ± 1.92 mm^3
hematoma volume by MRI at 2 hours after ICH ([8]; 2 hours after ICH induction, prior to treatment (baseline of the CN-105 group)): 9.93 ± 1.88 mm^3
rotarod motor functional recovery versus vehicle [9]: significantly improved motor functional recovery
